Results taken from patent US20260285850A1, “SUBSTITUTED OXAZOLIDINONES AND IMIDAZOLINONES AS HERBICIDES” (FMC CORPORATION, priority 2023, published 2026).

Tests used:
Type in all cases: in vivo
[1] = tested on: horseweed (Erigeron canadensis); assay: Test A postemergence application, visual injury rating 0-100
Procedure, shortened: (§1)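 Scale 0–100 (no effect to complete control), visual, versus untreated controls, read 10 days after application. Application: preemergence directed spray onto seeded loam–sand soil, or postemergence to young plants; formulation in non-phytotoxic solvent with surfactant.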

[2] = tested on: oat, wild (wild oat, Avena fatua); assay: as above
Procedure, shortened: as §1

corn (Zea mays) [3] = assay: as above
Procedure, shortened: as §1

[4] = tested on: barnyardgrass (Echinochloa crus-galli); assay: as above
Procedure, shortened: as §1

[5] = tested on: blackgrass (Alopecurus myosuroides); assay: as above
Procedure, shortened: as §1

[6] = tested on: green foxtail (Setaria viridis); assay: as above
Procedure, shortened: as §1

soybean (Glycine max) [7] = assay: as above
Procedure, shortened: as §1

[8] = tested on: galium (catchweed bedstraw, Galium aparine); assay: as above
Procedure, shortened: as §1

[9] = tested on: wheat (Triticum aestivum); assay: as above
Procedure, shortened: as §1

kochia (Bassia scoparia) [10] = assay: as above
Procedure, shortened: as §1

[11] = tested on: ragweed (common ragweed, Ambrosia artemisiifolia); assay: as above
Procedure, shortened: as §1

[12] = tested on: ryegrass, Italian (italian ryegrass, Lolium multiflorum); assay: as above
Procedure, shortened: as §1

[13] = tested on: palmer (palmer amaranth, palmer pigweed, Amaranthus palmeri); assay: as above
Procedure, shortened: as §1

[14] = tested on: ducksalad (Heteranthera limosa); assay: Test B flooded paddy test, visual plant response rating 0-100; details: 250 g ai/ha, Flood, applied to paddy water, evaluated after 13 days
Procedure, shortened: (§2)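 Compounds applied to standing paddy water (3 cm above soil, maintained for the test duration) on 2-leaf-stage plants; visual rating vs controls at 13 days, greenhouse.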

[15] = tested on: sedge, umbrella (small-flower umbrella sedge, Cyperus difformis); assay: as above; details: 250 g ai/ha, Flood, applied to paddy water, evaluated after 13 days
Procedure, shortened: as §2

rice (Oryza sativa) = assay: as above; details: 250 g ai/ha, Flood, applied to paddy water, evaluated after 13 days
Procedure, shortened: as §2

[16] = tested on: barnyardgrass (Echinochloa crusgalli); assay: as above; details: 250 g ai/ha, Flood, applied to paddy water, evaluated after 13 days
Procedure, shortened: as §2

[17] = tested on: oat, wild (wild oat, Avena fatua); assay: Test A preemergence soil spray, visual injury rating 0-100; details: 10 days
Procedure, shortened: as §1

corn (Zea mays) [18] = assay: as above; details: 10 days
Procedure, shortened: as §1

[19] = tested on: barnyardgrass (Echinochloa crus-galli); assay: as above; details: 10 days
Procedure, shortened: as §1

[20] = tested on: blackgrass (Alopecurus myosuroides); assay: as above; details: 10 days
Procedure, shortened: as §1

[21] = tested on: green foxtail (Setaria viridis); assay: as above; details: 10 days
Procedure, shortened: as §1

soybean (Glycine max) [22] = assay: as above; details: 10 days
Procedure, shortened: as §1

[23] = tested on: wheat (Triticum aestivum); assay: as above; details: 10 days
Procedure, shortened: as §1

kochia (Bassia scoparia) [24] = assay: as above; details: 10 days
Procedure, shortened: as §1

[25] = tested on: ragweed (common ragweed, Ambrosia artemisiifolia); assay: as above; details: 10 days
Procedure, shortened: as §1

[26] = tested on: ryegrass, Italian (italian ryegrass, Lolium multiflorum); assay: as above; details: 10 days
Procedure, shortened: as §1

[27] = tested on: palmer (palmer amaranth, palmer pigweed, Amaranthus palmeri); assay: as above; details: 10 days
Procedure, shortened: as §1

[28] = 62 g ai/ha, postemergence, 10 days, 0 = no effect, 100 = complete control
[29] = Postemergence, 16 g ai/ha, greenhouse 10 days, 0 no effect, 100 complete control
[30] = 62 g ai/ha, 0 = no effect, 100 = complete control

CC(C)COC(=O)C1=CCC(NC(=O)C2(C)CN(c3cc(Cl)cc(Cl)c3)C(=O)O2)C1 (stereo not shown) [Compound 156]
80: Horseweed plant response rating (0-100) [1, 28] | Foxtail, Green plant response rating (0 to 100 scale) [6, 29] | Galium plant response rating (0-100) [8, 28] | Galium plant response rating (0 to 100 scale) [8, 29] | Kochia plant response rating (0-100) (kochia (Bassia scoparia) [10]; [28]) | Kochia plant response rating (0 to 100 scale) (kochia (Bassia scoparia) [10]; [29]) | Pigweed, Palmer plant response rating (0-100) [27, 30]
10: Wheat plant response rating ([23]; 16 g ai/ha, 0 to 100 scale)
90: Corn plant response rating (0 to 100 scale) (corn (Zea mays) [3]; [29]) | Blackgrass plant response rating (0-100) [5, 28] | Foxtail, Green plant response rating (0-100) [6, 28] | Pigweed, Palmer plant response rating (0-100) [13, 28] | Pigweed, Palmer plant response rating (0 to 100 scale) [13, 29] | Plant response rating, Sedge, Umbrella (0 to 100 scale, 0 is no effect and 100 is complete control) [15] | Foxtail, Green plant response rating (0-100) [21, 30]
60: Soybean plant response rating (0-100) (soybean (Glycine max) [7]; [28]) | Ryegrass, Italian plant response rating (0 to 100 scale) [12, 29]
100: Corn plant response rating (0-100) (corn (Zea mays) [3]; [28]) | Barnyardgrass plant response rating (0-100) [4, 28] | Barnyardgrass plant response rating (0 to 100 scale) [4, 29]
55: Plant response rating, Barnyardgrass (0 to 100 scale, 0 is no effect and 100 is complete control) [16]
20: Oat, Wild plant response rating (0 to 100 scale) [2, 29] | Kochia plant response rating (kochia (Bassia scoparia) [24]; 16 g ai/ha, 0 to 100 scale) | Pigweed, Palmer plant response rating ([27]; 16 g ai/ha, 0 to 100 scale)
75: Plant response rating, Ducksalad (0 to 100 scale, 0 is no effect and 100 is complete control) [14]
40: Foxtail, Green plant response rating ([21]; 16 g ai/ha, 0 to 100 scale)
30: Horseweed plant response rating (0 to 100 scale) [1, 29] | Ragweed plant response rating (0 to 100 scale) [11, 29] | Blackgrass plant response rating (0-100) [20, 30] | Ryegrass, Italian plant response rating (0-100) [26, 30]
70: Oat, Wild plant response rating (0-100) [2, 28] | Blackgrass plant response rating (0 to 100 scale) [5, 29] | Wheat plant response rating (0-100) [9, 28] | Ryegrass, Italian plant response rating (0-100) [12, 28] | Kochia plant response rating (0-100) (kochia (Bassia scoparia) [24]; [30])
45: Plant response rating, Rice (0 to 100 scale, 0 is no effect and 100 is complete control) (rice (Oryza sativa))
0: Oat, Wild plant response rating ([17]; 16 g ai/ha, 0 to 100 scale) | Oat, Wild plant response rating (0-100) [17, 30] | Corn plant response rating (corn (Zea mays) [18]; 16 g ai/ha, 0 to 100 scale) | Barnyardgrass plant response rating ([19]; 16 g ai/ha, 0 to 100 scale) | Blackgrass plant response rating ([20]; 16 g ai/ha, 0 to 100 scale) | Soybean plant response rating (soybean (Glycine max) [22]; 16 g ai/ha, 0 to 100 scale) | Soybean plant response rating (0-100) (soybean (Glycine max) [22]; [30]) | Ragweed plant response rating ([25]; 16 g ai/ha, 0 to 100 scale) | Ragweed plant response rating (0-100) [25, 30] | Ryegrass, Italian plant response rating ([26]; 16 g ai/ha, 0 to 100 scale)
50: Soybean plant response rating (0 to 100 scale) (soybean (Glycine max) [7]; [29]) | Wheat plant response rating (0 to 100 scale) [9, 29] | Ragweed plant response rating (0-100) [11, 28] | Corn plant response rating (0-100) (corn (Zea mays) [18]; [30]) | Barnyardgrass plant response rating (0-100) [19, 30] | Wheat plant response rating (0-100) [23, 30]
